Measured values: PubChem BioAssay AID1259411 (Chemical Carcinogenesis Research Information System (CCRIS), 2018)
Active and inactive are the calls of the source. No rule for the calls is given here.

Tested on: rodent carcinogenicity bioassays, tumor incidence
Test: CCRIS carcinogenicity studies
Conditions: Dose: 0, Dose: 0
Outline: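 NCI-built, expert-reviewed records of carcinogenicity and related test outcomes (mutagenicity, tumor promotion/inhibition) compiled from published and report sources, historical span 1985-2011, not updated.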

Q: Which carcinogen call (Species: MOUSE, Strain/Sex: B6C3F1/FEMALE, Route: DERMAL, 100, 200 MG/KG BW IN ETHANOL 5/WK FOR 104 WK (STUDY DURATION: 104 WK), 100, 200 MG/KG BW IN ETHANOL 5/WK FOR 104 WK (STUDY DURATION: 104 WK), Tumor Site: Type of Lesion: LIVER: HEPATOCELLULAR ADENOMA, HEPATOCELLULAR CARCINOMA, HEPATOCELLULAR ADENOMA OR CARCINOMA OR HEPATOBLASTOMA) does the source give for O=C(O)COc1ccc(Cl)cc1Cl (tested in a mixture with another compound) here?
A: active; positive

Q: And the carcinogen call (Species: MOUSE, Strain/Sex: B6C3F1/MALE, Route: DERMAL, 100, 200 MG/KG BW IN ETHANOL 5/WK FOR 104 WK (STUDY DURATION: 104 WK), 100, 200 MG/KG BW IN ETHANOL 5/WK FOR 104 WK (STUDY DURATION: 104 WK), Tumor Site: Type of Lesion: KIDNEY: RENAL TUBULE ADENOMA, RENAL TUBULE ADENOMA OR CARCINOMA, LIVER: HEPATOCELLULAR ADENOMA, HEPATOCELLULAR CARCINOMA)?
A: active; positive

Q: And the carcinogen call (Species: RAT, Strain/Sex: F344/FEMALE, Route: DERMAL, 50, 100 MG/KG BW IN ETHANOL 5/WK FOR 104 WK (STUDY DURATION: 104 WK), 50, 100 MG/KG BW IN ETHANOL 5/WK FOR 104 WK (STUDY DURATION: 104 WK), Tumor Site: Type of Lesion: KIDNEY: RENAL TUBULE ADENOMA OR CARCINOMA)?
A: equivocal

Q: And the carcinogen call (Species: RAT, Strain/Sex: F344/MALE, Route: DERMAL, 50, 100 MG/KG BW IN ETHANOL 5/WK FOR 104 WK (STUDY DURATION: 104 WK), 50, 100 MG/KG BW IN ETHANOL 5/WK FOR 104 WK (STUDY DURATION: 104 WK))?
A: inactive; negative

Q: CCN(CC)c1ccc2c(-c3ccccc3C(=O)O)c3ccc(=[N+](CC)CC)cc-3oc2c1 was tested. Which carcinogen call (Species: MOUSE, Strain/Sex: ICR/FEMALE, Route: DERMAL, 1 MG IN 0.1 ML DISTILLED WATER 2/WK FOR A MEAN TOTAL DOSE OF 121.4 MG (STUDY DURATION: 18 MO)) did it give?
A: inactive; negative

Q: And the carcinogen call (Species: MOUSE, Strain/Sex: ICR/MALE, Route: DERMAL, 1 MG IN 0.1 ML DISTILLED WATER 2/WK FOR A MEAN TOTAL DOSE OF 121.4 MG (STUDY DURATION: 18 MO))?
A: inactive; negative

Q: Which carcinogen call (Species: MOUSE, Strain/Sex: B6C3F1/FEMALE, Route: INHALATION, 5000, 10000 PPM IN AIR 6H/D 5D/WK FOR 103 WK (STUDY DURATION: 104 WK), 5000, 10000 PPM IN AIR 6H/D 5D/WK FOR 103 WK (STUDY DURATION: 104 WK)) does the source give for C=CC here?
A: inactive; negative

Q: What about the carcinogen call (Species: MOUSE, Strain/Sex: B6C3F1/MALE, Route: INHALATION, 5000, 10000 PPM IN AIR 6H/D 5D/WK FOR 103 WK (STUDY DURATION: 104 WK), 5000, 10000 PPM IN AIR 6H/D 5D/WK FOR 103 WK (STUDY DURATION: 104 WK)) of the same compound?
A: inactive; negative

Q: And the carcinogen call (Species: MOUSE, Strain/Sex: SWISS/FEMALE, Route: INHALATION, 200, 1000, 5000 PPM 7 HR/D, 5D/WK FOR 78 WK (STUDY DURATION: LIFESPAN), 200, 1000, 5000 PPM 7 HR/D, 5D/WK FOR 78 WK (STUDY DURATION: LIFESPAN))?
A: inactive; negative

Q: What about the carcinogen call (Species: MOUSE, Strain/Sex: SWISS/MALE, Route: INHALATION, 200, 1000, 5000 PPM 7 HR/D, 5D/WK FOR 78 WK (STUDY DURATION: LIFESPAN), 200, 1000, 5000 PPM 7 HR/D, 5D/WK FOR 78 WK (STUDY DURATION: LIFESPAN)) of the same compound?
A: inactive; negative

Q: And the carcinogen call (Species: RAT, Strain/Sex: F344/FEMALE, Route: INHALATION, 5000, 10000 PPM IN AIR 6H/D 5D/WK FOR 103 WK (STUDY DURATION: 104 WK), 5000, 10000 PPM IN AIR 6H/D 5D/WK FOR 103 WK (STUDY DURATION: 104 WK))?
A: inactive; negative

Q: What about the carcinogen call (Species: RAT, Strain/Sex: F344/MALE, Route: INHALATION, 5000, 10000 PPM IN AIR 6H/D 5D/WK FOR 103 WK (STUDY DURATION: 104 WK), 5000, 10000 PPM IN AIR 6H/D 5D/WK FOR 103 WK (STUDY DURATION: 104 WK)) of the same compound?
A: inactive; negative

Q: What about the carcinogen call (Species: RAT, Strain/Sex: SPRAGUE-DAWLEY/FEMALE, Route: INHALATION, 200, 1000, 5000 PPM 7 HR/D, 5D/WK FOR 104 WK (STUDY DURATION: LIFESPAN), 200, 1000, 5000 PPM 7 HR/D, 5D/WK FOR 104 WK (STUDY DURATION: LIFESPAN)) of the same compound?
A: inactive; negative

Q: What about the carcinogen call (Species: RAT, Strain/Sex: SPRAGUE-DAWLEY/FEMALE, Route: INHALATION, 200, 1000, 5000 PPM IN AIR 7 HR/D 5 D/WK FOR 104 WK (STUDY DURATION: LIFETIME), 200, 1000, 5000 PPM IN AIR 7 HR/D 5 D/WK FOR 104 WK (STUDY DURATION: LIFETIME), Tumor Site: Type of Lesion: [BRAIN WAS ONLY SITE EVALUATED]) of the same compound?
A: inactive; negative

Q: And the carcinogen call (Species: RAT, Strain/Sex: SPRAGUE-DAWLEY/MALE, Route: INHALATION, 200, 1000, 5000 PPM 7 HR/D, 5D/WK FOR 104 WK (STUDY DURATION: LIFESPAN), 200, 1000, 5000 PPM 7 HR/D, 5D/WK FOR 104 WK (STUDY DURATION: LIFESPAN))?
A: inactive; negative

Q: And the carcinogen call (Species: RAT, Strain/Sex: SPRAGUE-DAWLEY/MALE, Route: INHALATION, 200, 1000, 5000 PPM IN AIR 7 HR/D 5 D/WK FOR 104 WK (STUDY DURATION: LIFETIME), 200, 1000, 5000 PPM IN AIR 7 HR/D 5 D/WK FOR 104 WK (STUDY DURATION: LIFETIME), Tumor Site: Type of Lesion: [BRAIN WAS ONLY SITE EVALUATED])?
A: inactive; negative

Q: Which results are given for COc1ccc(C(=O)/C(Br)=C\C(=O)O)cc1?
A: carcinogen call (Species: MOUSE, Strain/Sex: B6C3F1/FEMALE, Route: INTRAPERITONEAL, 12, 24 MG/KG 3/WK FOR 104 WK (STUDY DURATION: 104-105 WK), 12, 24 MG/KG 3/WK FOR 104 WK (STUDY DURATION: 104-105 WK)): inactive; negative; carcinogen call (Species: MOUSE, Strain/Sex: B6C3F1/MALE, Route: INTRAPERITONEAL, 12, 24 MG/KG 3/WK FOR 104 WK (STUDY DURATION: 104-105 WK), 12, 24 MG/KG 3/WK FOR 104 WK (STUDY DURATION: 104-105 WK)): inactive; negative; carcinogen call (Species: RAT, Strain/Sex: F344/FEMALE, Route: INTRAPERITONEAL, 7, 14 MG/KG 3/WK FOR 104 WK (STUDY DURATION: 104-105 WK), 7, 14 MG/KG 3/WK FOR 104 WK (STUDY DURATION: 104-105 WK), Tumor Site: Type of Lesion: MAMMARY GLAND: FIBROADENOMA): active; positive; carcinogen call (Species: RAT, Strain/Sex: F344/MALE, Route: INTRAPERITONEAL, 7, 14 MG/KG 3/WK FOR 104 WK (STUDY DURATION: 104-105 WK), 7, 14 MG/KG 3/WK FOR 104 WK (STUDY DURATION: 104-105 WK), Tumor Site: Type of Lesion: MULTIPLE SITES: MALIGNANT MESOTHELIOMA, TUNICA VAGINALIS: MESOTHELIOMA): active; positive

Q: With C/C(=C(\CCOC(=O)c1ccccc1)SC(=O)c1ccccc1)N(C=O)Cc1cnc(C)nc1N as the compound, how does the carcinogen call (Species: RAT, Strain/Sex: SPRAGUE-DAWLEY/FEMALE, Route: ORAL, 1000, 10000 PPM IN DIET FOR DURATION OF STUDY (STUDY DURATION: 105 WK), 1000, 10000 PPM IN DIET FOR DURATION OF STUDY (STUDY DURATION: 105 WK)) read?
A: inactive; negative

Q: And the carcinogen call (Species: RAT, Strain/Sex: SPRAGUE-DAWLEY/MALE, Route: ORAL, 1000, 10000 PPM IN DIET FOR DURATION OF STUDY (STUDY DURATION: 105 WK), 1000, 10000 PPM IN DIET FOR DURATION OF STUDY (STUDY DURATION: 105 WK))?
A: inactive; negative

Q: For O=S1(=O)CC=CC1, which carcinogen call (Species: MOUSE, Strain/Sex: B6C3F1/FEMALE, Route: GAVAGE, 384, 768 MG/KG, 384, 768 MG/KG) is on record?
A: inactive; negative

Q: What about the carcinogen call (Species: MOUSE, Strain/Sex: B6C3F1/MALE, Route: GAVAGE, 311, 622 MG/KG, 311, 622 MG/KG) of the same compound?
A: inactive; negative

Q: And the carcinogen call (Species: RAT, Strain/Sex: OSBORNE-MENDEL/FEMALE, Route: GAVAGE, 120, 240 MG/KG, 120, 240 MG/KG)?
A: inactive; negative

Q: And the carcinogen call (Species: RAT, Strain/Sex: OSBORNE-MENDEL/MALE, Route: GAVAGE, 197, 372 MG/KG, 197, 372 MG/KG)?
A: inactive; negative

Q: What does the source list for CCSC(C)CC1CC(=O)C(/C(CC)=N/OC/C=C/Cl)=C(O)C1 (stereo not drawn)?
A: carcinogen call (Species: Mouse, Strain/Sex: ???/Female (50/group), Route: Oral, 20, 200, 1,000, 2,000 ppm increased to 3,000 ppm after 15th wk in diet for 78 wk, 20, 200, 1,000, 2,000 ppm increased to 3,000 ppm after 15th wk in diet for 78 wk): inactive; negative (study details not given in source; purity 83.3%); carcinogen call (Species: Mouse, Strain/Sex: ???/Male (50/group), Route: Oral, 20, 200, 1,000, 2,000 ppm increased to 3,000 ppm after 15th wk in diet for 78 wk, 20, 200, 1,000, 2,000 ppm increased to 3,000 ppm after 15th wk in diet for 78 wk): inactive; negative (study details not given in source; purity 83.3%)
